PubChem BioAssay (NCI)
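96-well plates; 48 h exposure; 5 concentrations. Endpoints by linear interpolation between flanking doses. Not reached: highest tested concentration assigned. Here, GI50 denotes the concentration required for 50% inhibition of growth. TGI denotes the concentration required for complete inhibition of growth.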

What was measured:
Experiment in all cases: growth of human tumour cells (NCI), 48 h
HCC-2998 colon = test system: HCC-2998 colon
HCT-116 colon = test system: HCT-116 colon
HOP-62 NSCLC = test system: HOP-62 NSCLC
HT29 colon = test system: HT29 colon
IGROV1 ovarian = test system: IGROV1 ovarian
MALME-3M melanoma = test system: MALME-3M melanoma
NCI-H522 lung = test system: NCI-H522 lung
OVCAR-3 ovarian = test system: OVCAR-3 ovarian
SK-OV-3 ovarian = test system: SK-OV-3 ovarian
TK-10 renal = test system: TK-10 renal

Row | Compound | GI50 (HCC-2998 colon) [µM] | TGI (HCC-2998 colon) [µM] | GI50 (HCT-116 colon) [µM] | TGI (HCT-116 colon) [µM] | GI50 (HOP-62 NSCLC) [µM] | TGI (HOP-62 NSCLC) [µM] | GI50 (HT29 colon) [µM] | TGI (HT29 colon) [µM] | GI50 (IGROV1 ovarian) [µM] | TGI (IGROV1 ovarian) [µM] | GI50 (MALME-3M melanoma) [µM] | TGI (MALME-3M melanoma) [µM] | GI50 (NCI-H522 lung) [µM] | TGI (NCI-H522 lung) [µM] | GI50 (OVCAR-3 ovarian) [µM] | TGI (OVCAR-3 ovarian) [µM] | GI50 (SK-OV-3 ovarian) [µM] | TGI (SK-OV-3 ovarian) [µM] | GI50 (TK-10 renal) [µM] | TGI (TK-10 renal) [µM]
1 | Cc1nc2sc(C(=O)Nc3cccc(Br)c3)c(N)c2cc1C(O)c1ccccc1 (centres undefined) | 2.4 | 12.1 | 0.438 | 16.2 | 1.57 | 32.4 | 0.393 | > 82.5 | 1.94 | 16.6 | 0.761 | 22.3 | 0.726 | > 28.4 | 0.392 | 6.23 | 1.76 | 19.1 | 2.22 | 26.7
2 | CCCCCCCCCCCCC(CCCCCCCCCCCC)OP(=O)(O)O |  | > 100 |  | > 100 |  | > 100 |  | > 100 |  | > 100 |  | > 100 |  | > 100 |  | > 100 |  | > 100 |  | > 100
3 | COc1cc2c3c(n(CCCN4CCCC(O)C4)c(=O)c2cc1OC)-c1cc2c(cc1C3=O)OCO2 (centres undefined) | 0.0763 | 1.05 | 0.0157 | 0.925 | 0.0194 | 0.0746 | 0.731 | 9.94 | 0.836 | 8.87 | 5.71 | 14.8 | 2.34 | 8.91 | 2.14 | 4.71 | 3.8 | 27.2 | 6.38 | 14.2
4 | COC(=O)C1=C(C)N(NC(N)=O)C(C)(O)C12CCOC2=O (centres undefined) |  | 45.1 |  | > 100 |  | > 100 |  | > 100 |  | > 100 |  | > 100 |  | > 100 |  | > 100 |  | > 100 |  | > 100
5 | CC[CH2][Sn]([CH2]CC)([O]C(=O)Cc1ccc(F)cc1)[O][Sn]([CH2]CC)([CH2]CC)[O]C(=O)Cc1ccc(F)cc1 | 0.439 | 1.7 | 0.218 | 0.796 | 1.25 | 2.69 | 0.728 | 2.02 | 0.718 | 2.04 | 0.102 | 0.291 |  | 0.0322 | 0.431 | 1.27 | 0.774 | 2.11 | 0.125 | 0.393
6 | C=C1C(=O)O[C@H]2[C@H]1CC/C(COC(=O)NCc1cc(OC)cc(OC)c1)=C\CC[C@@]1(C)O[C@@H]21 | 1.94 | 3.51 | 0.771 | 2.06 | 3.06 | 11.7 | 1.2 | 2.96 | 2.12 | 7.66 | 1.86 | 3.83 | 0.349 | 1.49 | 1.01 | 2.31 | 12.8 | 26.1 | 1.66 | 3.18
7 | O=C(C=Nc1ccccc1C(=O)[O-])c1cccs1.O=C(C=Nc1ccccc1C(=O)[O-])c1cccs1.[Zn+2] |  | > 10 |  | > 100 |  | > 100 |  | > 100 |  | 76 |  | > 10 |  | 47.9 |  | 29.1 |  | 37.9 |  | > 100
